Results taken from PubChem BioAssay (NCI).
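Cells were grown in 96-well plates and exposed to each compound for 48 hours at five concentrations; endpoints were interpolated linearly between bracketing concentrations, or set to the highest concentration if not reached. TGI: concentration producing complete growth inhibition.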

How the values were obtained:
Assay in all cases: NCI tumour cell line growth inhibition, 48 h
SNB-75 CNS = system: SNB-75 CNS
MDA-MB-231 breast = system: MDA-MB-231 breast
DU-145 prostate = system: DU-145 prostate
NCI-H226 lung = system: NCI-H226 lung
LOX IMVI melanoma = system: LOX IMVI melanoma
SW-620 colon = system: SW-620 colon
786-0 renal = system: 786-0 renal
UACC-257 melanoma = system: UACC-257 melanoma
SF-295 CNS = system: SF-295 CNS
A549 NSCLC = system: A549 NSCLC
SK-OV-3 ovarian = system: SK-OV-3 ovarian
M14 melanoma = system: M14 melanoma
A498 renal = system: A498 renal
MOLT-4 leukemia = system: MOLT-4 leukemia
HCT-116 colon = system: HCT-116 colon
SK-MEL-28 melanoma = system: SK-MEL-28 melanoma
HT29 colon = system: HT29 colon
NCI-H460 lung = system: NCI-H460 lung
OVCAR-3 ovarian = system: OVCAR-3 ovarian
UO-31 renal = system: UO-31 renal
MDA-N = system: MDA-N
CAKI-1 renal = system: CAKI-1 renal
HOP-92 NSCLC = system: HOP-92 NSCLC
NCI-H23 lung = system: NCI-H23 lung
OVCAR-8 ovarian = system: OVCAR-8 ovarian
MALME-3M melanoma = system: MALME-3M melanoma
SNB-19 CNS = system: SNB-19 CNS
RPMI-8226 leukemia = system: RPMI-8226 leukemia
PC-3 prostate = system: PC-3 prostate
SN12C renal = system: SN12C renal
T-47D breast = system: T-47D breast
NCI-H522 lung = system: NCI-H522 lung
HCC-2998 colon = system: HCC-2998 colon
OVCAR-5 ovarian = system: OVCAR-5 ovarian
MDA-MB-435 = system: MDA-MB-435
BT-549 breast = system: BT-549 breast
OVCAR-4 ovarian = system: OVCAR-4 ovarian
SF-539 CNS = system: SF-539 CNS
EKVX NSCLC = system: EKVX NSCLC
SK-MEL-2 melanoma = system: SK-MEL-2 melanoma
IGROV1 ovarian = system: IGROV1 ovarian
NCI/ADR-RES ovarian = system: NCI/ADR-RES ovarian
HCT-15 colon = system: HCT-15 colon
K-562 leukemia = system: K-562 leukemia
COLO 205 colon = system: COLO 205 colon
MCF7 breast = system: MCF7 breast
HS 578T breast = system: HS 578T breast
SK-MEL-5 melanoma = system: SK-MEL-5 melanoma
HL-60(TB) leukemia = system: HL-60(TB) leukemia
CCRF-CEM leukemia = system: CCRF-CEM leukemia
SF-268 CNS = system: SF-268 CNS
ACHN renal = system: ACHN renal
TK-10 renal = system: TK-10 renal
KM12 colon = system: KM12 colon
HOP-62 NSCLC = system: HOP-62 NSCLC
U251 CNS = system: U251 CNS
UACC-62 melanoma = system: UACC-62 melanoma
SR leukemia = system: SR leukemia
RXF 393 renal = system: RXF 393 renal

Work on COc1cc(C(c2ccc3c(c2)OCO3)N2C(=O)CCC2C(=O)O)cc(OC)c1OC (stereo not given) yielded a TGI (SNB-75 CNS) greater than 100 µM, a TGI (MDA-MB-231 breast) greater than 100 µM and a TGI (DU-145 prostate) greater than 100 µM. For the same compound, the TGI (NCI-H226 lung) was greater than 100 µM, the TGI (LOX IMVI melanoma) was greater than 100 µM and the TGI (SW-620 colon) was greater than 100 µM. The TGI (786-0 renal) was greater than 100 µM, the TGI (UACC-257 melanoma) was greater than 100 µM and the TGI (SF-295 CNS) was greater than 100 µM. The TGI (A549 NSCLC) was greater than 100 µM, the TGI (SK-OV-3 ovarian) was greater than 100 µM and the TGI (M14 melanoma) was greater than 100 µM. The TGI (A498 renal) was greater than 100 µM, the TGI (MOLT-4 leukemia) was greater than 100 µM and the TGI (HCT-116 colon) was greater than 100 µM. For the same compound, the TGI (SK-MEL-28 melanoma) was greater than 100 µM, the TGI (HT29 colon) was greater than 100 µM and the TGI (NCI-H460 lung) was greater than 100 µM. It also gave a TGI (OVCAR-3 ovarian) greater than 100 µM, a TGI (UO-31 renal) greater than 100 µM and a TGI (MDA-N) greater than 100 µM. For the same compound, the TGI (CAKI-1 renal) was greater than 100 µM, the TGI (HOP-92 NSCLC) was greater than 100 µM and the TGI (NCI-H23 lung) was greater than 100 µM. It also gave a TGI (OVCAR-8 ovarian) greater than 100 µM, a TGI (MALME-3M melanoma) greater than 100 µM and a TGI (SNB-19 CNS) greater than 100 µM. It also gave a TGI (RPMI-8226 leukemia) greater than 100 µM, a TGI (PC-3 prostate) greater than 100 µM and a TGI (SN12C renal) greater than 100 µM. It also gave a TGI (T-47D breast) greater than 100 µM, a TGI (NCI-H522 lung) greater than 100 µM and a TGI (HCC-2998 colon) greater than 100 µM. It also gave a TGI (OVCAR-5 ovarian) greater than 100 µM, a TGI (MDA-MB-435) greater than 100 µM and a TGI (BT-549 breast) greater than 100 µM. The TGI (OVCAR-4 ovarian) was greater than 100 µM, the TGI (SF-539 CNS) was greater than 100 µM and the TGI (EKVX NSCLC) was greater than 100 µM. The TGI (SK-MEL-2 melanoma) was greater than 100 µM, the TGI (IGROV1 ovarian) was greater than 100 µM and the TGI (NCI/ADR-RES ovarian) was greater than 100 µM. The TGI (HCT-15 colon) was greater than 100 µM, the TGI (K-562 leukemia) was greater than 100 µM and the TGI (COLO 205 colon) was greater than 100 µM. The TGI (MCF7 breast) was greater than 100 µM, the TGI (HS 578T breast) was greater than 100 µM and the TGI (SK-MEL-5 melanoma) was greater than 100 µM. It also gave a TGI (HL-60(TB) leukemia) greater than 100 µM, a TGI (CCRF-CEM leukemia) greater than 100 µM and a TGI (SF-268 CNS) greater than 100 µM. For the same compound, the TGI (ACHN renal) was greater than 100 µM, the TGI (TK-10 renal) was greater than 100 µM and the TGI (KM12 colon) was greater than 100 µM. For the same compound, the TGI (HOP-62 NSCLC) was greater than 100 µM, the TGI (U251 CNS) was greater than 100 µM and the TGI (UACC-62 melanoma) was greater than 100 µM.
In the case of Cc1ccc(S(=O)(=O)NCCSCCSCCNS(=O)(=O)c2ccc(C)cc2)cc1, the TGI (SNB-75 CNS) is reported as 68.7 µM, the TGI (DU-145 prostate) is reported as greater than 100 µM and the TGI (NCI-H226 lung) is reported as greater than 100 µM. For the same compound, the TGI (LOX IMVI melanoma) was greater than 100 µM, the TGI (SR leukemia) was greater than 100 µM and the TGI (SW-620 colon) was greater than 100 µM. The TGI (UACC-257 melanoma) was greater than 100 µM, the TGI (SF-295 CNS) was greater than 100 µM and the TGI (A549 NSCLC) was greater than 100 µM. For the same compound, the TGI (SK-OV-3 ovarian) was greater than 100 µM, the TGI (A498 renal) was 91.6 µM and the TGI (MOLT-4 leukemia) was greater than 100 µM. It also gave a TGI (HCT-116 colon) greater than 100 µM, a TGI (SK-MEL-28 melanoma) greater than 100 µM and a TGI (HT29 colon) greater than 100 µM. For the same compound, the TGI (NCI-H460 lung) was greater than 100 µM, the TGI (UO-31 renal) was greater than 100 µM and the TGI (MDA-N) was greater than 100 µM. For the same compound, the TGI (HOP-92 NSCLC) was greater than 100 µM, the TGI (OVCAR-8 ovarian) was greater than 100 µM and the TGI (SNB-19 CNS) was greater than 100 µM. For the same compound, the TGI (PC-3 prostate) was greater than 100 µM, the TGI (SN12C renal) was greater than 100 µM and the TGI (NCI-H522 lung) was greater than 100 µM. For the same compound, the TGI (HCC-2998 colon) was greater than 100 µM, the TGI (RXF 393 renal) was greater than 100 µM and the TGI (OVCAR-4 ovarian) was greater than 100 µM. It also gave a TGI (NCI/ADR-RES ovarian) greater than 100 µM, a TGI (K-562 leukemia) greater than 100 µM and a TGI (COLO 205 colon) of 41.2 µM. The TGI (MCF7 breast) was greater than 100 µM, the TGI (HS 578T breast) was greater than 100 µM and the TGI (SK-MEL-5 melanoma) was 18 µM. The TGI (CCRF-CEM leukemia) was greater than 100 µM, the TGI (SF-268 CNS) was greater than 100 µM and the TGI (ACHN renal) was greater than 100 µM. It also gave a TGI (TK-10 renal) greater than 100 µM and a TGI (KM12 colon) greater than 100 µM.
